Consider 2 molecules from publication PMC6071567 (Cold Spring Harbor Molecular Case Studies, 2018).

In one assay the test system is CLB-GE. Description: Cell viability by resazurin assay, 72 h. In kind it is cell-based. The note with it: Homo sapiens. A general note: Resazurin is reduced to fluorescent resorufin, in cell work by metabolically active cells.
In the next assay the test system is IMR32. Description: Cell viability by resazurin assay, 72 h. In kind it is cell-based, human. The note with it: ALK wt, MYCN amplified.
A further assay has as its system SK-N-BE. Description: Cell viability by resazurin assay, 72 h. The format is cell-based. To be noted: Homo sapiens.
A further assay concerns CLB-PE. Nature of the assay: Cell viability by resazurin assay, 72 h. The format is cell-based. To be noted: Homo sapiens.
The next assay concerns SK-N-DZ. Nature of the assay: Cell viability by resazurin assay, 72 h. The format is cell-based. To be noted: Homo sapiens.
Another assay has as its system KELLY. Nature of the assay: Cell viability by resazurin assay, 72 h. The note with it: ALK F1174L, amplified, MYCN amplified. In kind it is cell-based, human.
A further assay has as its system SK-N-AS. Nature of the assay: Cell viability by resazurin assay, 72 h. The format is cell-based. The note with it: Homo sapiens.
Another assay concerns CLB-BAR. Nature of the assay: Cell viability by resazurin assay, 72 h. The format is cell-based. To be noted: Homo sapiens.
The next assay has as its system CLB-GAR. Nature of the assay: Cell viability by resazurin assay, 72 h. In kind it is cell-based, human. The note with it: ALK R1275Q, MYCN nonamplified.
Assay [1] has as its system ALK-I1171T metastatic neuroblastoma. In kind it is in vivo, human. The note with it: for Primary tumor volume (MRI): ∼18.8 mL immediately before start.

“Also recorded” adds a separate entry of the source. Read-outs that look alike come from different tables or passages of the source.

Turning to `C[C@@H](Oc1cc(-c2cnn(C3CCNCC3)c2)cnc1N)c1c(Cl)ccc(F)c1Cl` [crizotinib], the IC50 with CLB-GE was 0.234 ± 0.018 µM; in the assay on IMR32, 0.349 ± 0.045 µM; in the assay on IMR32 (Homo sapiens, IMR-32, 72 h), above 0.35 µM; with SK-N-BE, above 1 µM; in the assay with CLB-PE, above 4 µM; with SK-N-DZ, above 4 µM. Besides, the half-maximal inhibitory concentration (IC50) is 0.333 ± 0.078 µM in the assay with KELLY; around 0.33 µM in the assay on KELLY (Homo sapiens, Kelly); 0.353 ± 0.027 µM in the assay on SK-N-AS; 0.0549 ± 0.02 µM in the assay on CLB-BAR.
In the case of `Cc1cc(Nc2ncc(Cl)c(Nc3ccccc3S(=O)(=O)C(C)C)n2)c(OC(C)C)cc1C1CCNCC1` [ceritinib, 5-chloro-N2-(2-isopropoxy-5-methyl-4-(piperidin-4-yl)phenyl)-N4-(2-(isopropylsulfonyl)phenyl)pyrimidine-2,4-diamine], the IC50 was 0.102 ± 0.016 µM with CLB-GAR; around 0.11 µM in the assay on CLB-GAR (Homo sapiens); 0.131 ± 0.024 µM with CLB-GE; above 0.5 µM in the assay with IMR32; above 0.35 µM in the assay with IMR32 (Homo sapiens, IMR-32, 72 h); above 1.5 µM with SK-N-BE. For the same molecule, the IC50 in the assay on CLB-PE is above 15 µM; with SK-N-DZ it was above 0.8 µM; with KELLY, 0.329 ± 0.036 µM; in the assay on KELLY (Homo sapiens, Kelly) it was around 0.33 µM; with SK-N-AS, above 3 µM; in the assay on CLB-BAR, 0.0361 ± 0.0062 µM. In [1] (21 mo after initiation of ceritinib, 1 yr after surgery), the “Clinical evaluation (CT, MRI, MIBG scintigraphy)” value is “complete remission at all metastatic sites; also recorded: no residual tumor in the abdomen and complete resolution of metastases at all sites”. The “Primary tumor volume (MRI)” value was around 13.8 mL in assay [1] (after 3 mo therapy) and around 10.6 mL in assay [1] (after 6 mo therapy, prior to surgery). Besides, the “Decrease in size of primary tumor (MRI, volumetric)” value in assay [1] (after 6.5 mo of ceritinib treatment) is recorded as −43.6%. Further, in [1] (after 34 mo of continuous ceritinib treatment), the Clinical status result was “continuous complete remission”. In addition, the Urinary catecholamines entry in assay [1] (after the first 4-wk cycle, 450 mg/m^2 once daily) is recorded as “decreased to levels below the upper reference limit”. Besides, the “Ki-67 positivity of resected tumor” value in [1] (tumor removed at 7.5 mo of treatment, 27% before treatment) is reported as 5%.

In general, IC50 refers to the concentration that inhibits the measured activity by half. Higher therefore signals weaker potency in that assay.
